EC50 data for 53 compounds are collected here from PubChem BioAssay AID624145 (Sanford-Burnham Center for Chemical Genomics, 2012).

pEC50: −log10 of the molar value. Activity calls are given as the source filed them.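 How the source made its calls: active means EC50 at or below 20 µM; inactive means the rest.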

This experiment deals with hiPSC single-cell survival, DAPI nuclei count imaging. Description: enhancers of single-cell hiPSC survival, dose response, imaging, fluorescence imaging, uHTS hits (AID 624145).
As a reminder, the EC50 is the concentration giving half of the maximal effect. Turning to `O=C(Nc1ccncc1)c1ccccc1[N+](=O)[O-]`, the EC50 was 33.4 µM (inactive).
What is called pEC50 is the EC50 on a negative log10 scale, so that one unit is a factor of ten. Regarding `COCCNC(=O)c1ccc(-c2cn[nH]c2)c2ccoc12`, the pEC50 was 4.72.
With `CC1C/C(=C/c2ccncc2)C(=O)/C(=C/c2ccncc2)C1` (stereo not drawn), the EC50 was > 80 µM (inactive).
Still for that read-out and setting: the value for `CCn1c(Cl)c(C=O)s/c1=N\S(=O)(=O)c1ccccc1` was > 80 µM (inactive).
On the same count and under the same terms, the value for `Cc1c(C(=O)OCC(=O)Nc2ccc(C(N)=O)cc2)cccc1[N+](=O)[O-]` was > 80 µM (inactive); that for `CCN1C/C(=C\c2cccc([N+](=O)[O-])c2)C(=O)/C(=C/c2cccc([N+](=O)[O-])c2)C1` was > 80 µM (inactive).
`CCCCCCC[C@@H](C/C=C/CCC(=O)N(C)C/C(=C/Cl)C/C(=C\C(=O)N1CC(OC)=CC1=O)OC)OC`: the pEC50 is 6.28.
In the case of `CNc1cc(Cl)c2nonc2c1[N+](=O)[O-]`, the EC50 was > 80 µM (inactive).
The same measure, in the same setting: the value for `CC1(C)Cc2c(C#N)c(SCC(=O)c3ccccc3)nc(N3CCOCC3)c2CS1` was 39.3 µM (inactive).
In the case of `O=C1/C(=C/c2ccncc2)CCC/C1=C\c1ccncc1`, the EC50 is > 80 µM (inactive).
Still for that read-out and setting: the value for `O=C(Nc1ccncc1)c1ccccc1F` was 28.2 µM (inactive).
For `O=C(Nc1nc(-c2ccncc2)cs1)C1COc2ccccc2O1` (stereo not drawn), the pEC50 was 5.73.
As for `N#C/C(=C/c1cccc([N+](=O)[O-])c1)c1nnc2n1CCCCC2`, the EC50 is > 80 µM (inactive).
Turning to `O=S(=O)(c1cccc2cnccc12)N1CCNCC1`, the pEC50 is 5.69.
As for `C=C1C(C)C2C(Cc3ccccc3)NC(=O)C23C(OC(C)=O)C=CC(C)(O)CC(C)CC=CC3C1O` (stereo not drawn), the EC50 was > 80 µM (inactive).
On to `C=C1[C@@H](C)[C@H]2[C@H](Cc3ccccc3)NC(=O)[C@]23OC(=O)/C=C/[C@H](O)CCC[C@@H](C)C/C=C/[C@H]3[C@@H]1O`, for which the pEC50 is 4.90.
Same read-out and setting: the same measure for `NC(=O)c1ccc(NC(=O)CCC(=O)c2cccs2)cc1`: 5.15.
On to `CC1(C)Cc2c(C#N)c(NCC3CCCO3)nc(-c3ccco3)c2CO1` (stereo not drawn), for which the EC50 was 42.8 µM (inactive).
On to `O=c1c(Cl)c(Cl)cnn1Cc1nnc(-c2ccccc2Br)o1`, for which the EC50 was > 80 µM (inactive).
For the compound `O=C(Nc1ccncc1)c1c(F)cccc1F`, the pEC50 is 4.87.
In the case of `CC(OC(=O)c1ccc(S(=O)(=O)N2CCCCC2)cc1)C(=O)Nc1ccc(C(N)=O)cc1` (stereo not drawn), the pEC50 was 4.98.
As to `CCCNC(=O)COC(=O)c1ccccc1C(=O)c1ccc(Cl)c([N+](=O)[O-])c1`, the EC50 was > 80 µM (inactive).
On the same count and under the same terms, the same measure for `CN1C/C(=C/c2cccnc2)C(=O)/C(=C/c2cccnc2)C1`: > 80 µM (inactive); for `CC(OC(=O)c1ccc2c(=O)n3c(nc2c1)CCC3)C(=O)Nc1ccc(C(N)=O)cc1` (stereo not drawn): 28.4 µM (inactive); for `C=C(C)[C@@]12OC3(c4ccccc4)O[C@@H]1C1[C@@H]4O[C@]4(CO)[C@@H](O)[C@]4(O)C(=O)C(C)=C[C@H]4[C@@]1(O3)[C@H](C)[C@H]2OC(=O)/C=C/C=C/c1ccccc1` (stereo partly drawn): > 80 µM (inactive).
Regarding `CC(Oc1ccccc1)C(=O)Nc1nc(-c2ccncc2)cs1` (stereo not drawn), the EC50 is 42.9 µM (inactive).
As for `O=C(Nc1ccncc1)c1c(F)c(F)c(F)c(F)c1F`, the pEC50 was 5.26.
The same measure, in the same setting: the same measure for `O=C(Nc1ccncc1)c1cc(S(=O)(=O)N2CCCC2)ccc1Cl`: 4.87.
For `CC(C)(C)NC(=O)Cn1nnc(-c2ccccc2NC(=O)c2cnccn2)n1`, the EC50 is > 80 µM (inactive).
For `COC(=O)CCSc1cc([N+](=O)[O-])cc2c1c(C1OCCS1)nn2-c1ccccc1` (stereo not drawn), the EC50 was > 80 µM (inactive).
The same measure, in the same setting: the same measure for `Cc1nnc2n(C3CCCCC3)c(=O)c3c4c(sc3n12)COC(C)(C)C4`: > 80 µM (inactive).
`O=C(NCc1ccccc1)c1ccc(-c2cn[nH]c2)c2ccoc12`: the pEC50 was 5.96.
Turning to `CCCCn1c(=O)[nH]c(=O)c2c1nc(Cn1ncc(Cl)c(Cl)c1=O)n2CCC`, the EC50 was > 80 µM (inactive).
On the same count and under the same terms, the same measure for `CC(OC(=O)c1cccc(S(=O)(=O)N2CCN(C)CC2)c1)C(=O)Nc1ccc(C(N)=O)cc1` (stereo not drawn): 35.6 µM (inactive).
In the case of `O=C(NCC1CC1)c1ccc(-c2cn[nH]c2)c2ccoc12`, the pEC50 was 4.85.
Turning to `C=C1C(C)C2C(Cc3ccccc3)NC(=O)C23OC(=O)/C=C/C(O)CCCC(C)C/C=C/C3C1O` (stereo not drawn), the pEC50 was 4.90.
As for `CN(C(=O)COC(=O)c1nc(Cl)c(Cl)c(Cl)c1Cl)C1CCS(=O)(=O)C1` (stereo not drawn), the EC50 is > 80 µM (inactive).
As to `COc1ccc2c(c1)c(=O)c(C(=O)c1ccc(Cl)cc1)cn2CC(=O)Nc1ccc(F)cc1`, the negative-log EC50 (pEC50) was 4.73.
The same measure, in the same setting: the same measure for `O=C(Cc1ccc(Br)cc1)Nc1ccc2[nH]ncc2c1`: 4.72.
As for `CCN1C/C(=C/c2cccc([N+](=O)[O-])c2)C(=O)/C(=C/c2cccc([N+](=O)[O-])c2)C1`, the EC50 was > 80 µM (inactive).
The same measure, in the same setting: the same measure for `O=C(COc1ccccc1)Nc1nc(-c2ccncc2)cs1`: 29.3 µM (inactive); for `COc1ccccc1Sc1nc(-c2ccccn2)ncc1OC`: 45.7 µM (inactive).
Turning to `c1ccc(CN2CCN(c3nc(NCc4ccco4)c4ccccc4n3)CC2)cc1`, the pEC50 is 5.24.
`CN1C2CCC1/C(=C/c1ccccn1)C(=O)/C2=C\c1ccccn1`: the EC50 is > 80 µM (inactive).
Take `O=C(C(O)c1ccc(Br)cc1)N1CCC(Nc2ccc3[nH]ncc3c2)CC1` (stereo not drawn): the pEC50 is 5.23.
Consider `CCOCCCNC(=O)/C(C#N)=C/c1ccc([N+](=O)[O-])o1`, for which the EC50 is > 80 µM (inactive).
Still for that read-out and setting: the value for `CCCSc1nc(N2CCOCC2)c2c(c1C#N)CC(C)(C)SC2` was > 80 µM (inactive); that for `C=C1C(=O)O[C@@H]2C[C@@H](C)[C@@H]3C=CC(=O)[C@@]3(C)[C@@H](O)[C@H]12` was > 80 µM (inactive).
For the compound `CN(Cc1ccc(C(F)(F)F)cc1)C(=O)[C@H]1O[C@@H](n2cnc3c(N)ncnc32)[C@H](O)[C@@H]1O`, the EC50 is 20.8 µM (inactive).
Still for that read-out and setting: the same measure for `CN1Cc2cnnn2-c2ccccc2C1C#N` (stereo not drawn): 26.5 µM (inactive).
Regarding `O=C(Nc1ccncc1)c1cc(S(=O)(=O)N2CCOCC2)ccc1Cl`, the pEC50 is 4.86.
For `C=C1C(=O)OC2CC(C)C3C=CC(=O)C3(C)C(O)C12` (stereo not drawn), the EC50 was > 80 µM (inactive).
Turning to `CCC(C(=O)Nc1ccc2[nH]ncc2c1)c1ccccc1` (stereo not drawn), the pEC50 is 5.19.
